This note sets out measurements from patent US20030134859A1 (SANKYO COMPANY, LIMITED, priority 2000, published 2003).

Like-named read-outs stand apart in the source and are kept apart here.

For assay [1], the system named is Mouse preadipocyte strain 3T3-L1. As to the kind of experiment: Inhibition of differentiation as an indication of acetic acid uptake. It is filed as cell-based. The conditions noted are these: control (0.01% dimethylsulfoxide) = 100%; for activity at 0.1 µM: Mus musculus, read-out: Rate of Uptake (%) of [2-14C] acetic acid. In a few lines: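 Differentiation is indexed by 1 hr [2-14C]acetic acid incorporation, measured by scintillation counting and given as uptake relative to 0.01% DMSO control (100%). Mouse 3T3-L1 preadipocytes, pre-grown 10 days, received 0.1 μM test substance throughout a 4-day insulin/IBMX/dexamethasone induction, followed by 2 days' maintenance culture.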

A further assay concerns Rat white adipocytes. As to the kind of experiment: Stimulation of differentiation of the adipocytes (Oil Red O). The conditions noted are these: 100 nM test compound, 5 days, Oil Red O ABS550, control = 100%, blank = 0%, Table 7; for activity at 0.1 µM: Rattus norvegicus, Adipocyte, 120 h, read-out: Rate of Differentiation (%). Type of assay: cell-based. The method, boiled down: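 Oil Red O lipid staining, absorbance 550 nm after DMSO extraction, quantified differentiation of rat white adipocytes exposed 5 days to compound (final 100 nM, 0.1% DMSO) in differentiation medium. Percent differentiation normalised between cell-free blank (0%) and DMSO control (100%).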

Turning to `O=C(Nc1nc2ccc([N+](=O)[O-])cc2s1)c1cc([N+](=O)[O-])ccc1Cl` [Example 34, N-(6-Nitrobenzothiazol-2-yl)-(2-chloro-5-nitrophenyl)carboxamide], the figures for the activity at 0.1 µM (in assay [1] (0.1 μM test substance); in the assay with Rat white adipocytes) were 60.8% and 140%, respectively.

Turning to `O=C(Nc1nc(-c2cccs2)cs1)c1cc([N+](=O)[O-])ccc1Cl` [Example 36, N-[4-(2-Thienyl)thiazol-2-yl)-(2-chloro-5-nitrophenyl)carboxamide], the activity at 0.1 µM in assay [1] (3T3-L1, 0.1 μM test substance) amounted to 29.2%; with Rat white adipocytes, 111%.

Consider `O=C(Nc1nc(-c2ccc(Cl)c(Cl)c2)cs1)c1cc([N+](=O)[O-])ccc1Cl` [Example 43, N-[4-(3,4-Dichlorophenyl)thiazol-2-yl]-(2-chloro-5-nitrophenyl)carboxamide], for which the activity at 0.1 µM amounted to 56.7% in assay [1] (3T3-L1, 0.1 μM test substance) and 118% in the assay on Rat white adipocytes.

Consider `O=C(Nc1nccc2ccccc12)c1cc([N+](=O)[O-])ccc1Cl` [Example 59, N-(Isoquinolin-1-yl)-(2-chloro-5-nitrophenyl)carboxamide], for which the activity at 0.1 µM in assay [1] (3T3-L1, 0.1 μM test substance) stood at 36.3%; in the assay with Rat white adipocytes, 121%.

Take `O=C(Nc1nc(Cl)cc(Cl)n1)c1cc([N+](=O)[O-])ccc1Cl` [Example 83, N-(4,6-Dichloropyrimidin-2-yl)-(2-chloro-5-nitrophenyl)carboxamide]: the activity at 0.1 µM in assay [1] (3T3-L1, 0.1 μM test substance) turned out to be 75.6%; with Rat white adipocytes, 114%.

For the compound `Cc1noc(NS(=O)(=O)c2ccc(NC(=O)c3cc([N+](=O)[O-])ccc3Cl)cc2)c1C` [Example 104, N-[4-[(3,4-Dimethylisoxazol-6-yl)aminosulfonyl]phenyl]-(2-chloro-5-nitrophenyl)carboxamide], the activity at 0.1 µM in assay [1] (3T3-L1, 0.1 μM test substance) was 89.8%; in the assay on Rat white adipocytes, 115%.

Consider `O=C(Nc1ccc(N2CCCCC2)cc1)c1cc([N+](=O)[O-])ccc1Cl` [Example 114, N-[4-(Piperidin-1-yl)phenyl]-(2-chloro-5-nitrophenyl)carboxamide], for which the activity at 0.1 µM in assay [1] (3T3-L1, 0.1 μM test substance) amounted to 79%; in the assay with Rat white adipocytes it was 118%.

Turning to `Cc1ccc(C(=O)Nc2ccc(NC(=O)c3cc([N+](=O)[O-])ccc3Cl)cc2)cc1` [Example 121, N-[4-(4-Methylbenzoyl)aminophenyl]-(2-chloro-5-nitrophenyl)carboxamide], the activity at 0.1 µM in assay [1] (3T3-L1, 0.1 μM test substance) was found to be 81%; in the assay on Rat white adipocytes, 136%.

As for `Cc1ccc2nc(NC(=O)c3cc([N+](=O)[O-])ccc3Cl)sc2c1` [Example 141, N-(6-Methybenzothiazol-2-yl)-(2-chloro-5-nitrophenyl)carboxamide], the “Rate of Uptake (%) of [2-14C] acetic acid” value in assay [1] (0.1 μM test substance) amounted to 78.7%. Further, the “Rate of Differentiation (%)” value with Rat white adipocytes is given as 133.2%.

As for `CCc1ccc(S(=O)(=O)Nc2ccc(NC(=O)c3cc([N+](=O)[O-])ccc3Cl)cc2)cc1` [Example 150, N-[4-(4-Ethylbenzenesulfonylamino)phenyl]-(2-chloro-5-nitrophenyl)carboxamide], the activity at 0.1 µM in assay [1] (3T3-L1, 0.1 μM test substance) is 82.9%; in the assay with Rat white adipocytes, 137%.

Consider `O=C(Nc1ccc(S(=O)(=O)N2CCCCC2)cc1)c1cc([N+](=O)[O-])ccc1Cl` [Example 151, N-[4-(Piperidyisulfonyl)phenyl]-(2-chloro-5-nitrophenyl)carboxamide], for which the activity at 0.1 µM in assay [1] (3T3-L1, 0.1 μM test substance) came out at 62.3%; in the assay with Rat white adipocytes, 118%.

Regarding `O=C(Nc1ccc(S(=O)(=O)N2CCOCC2)cc1)c1cc([N+](=O)[O-])ccc1Cl` [Example 153, N-[4-(Morpholin-4-ylsulfonyl)phenyl]-(2-chloro-5-nitrophenyl)carboxamide], the activity at 0.1 µM in assay [1] (3T3-L1, 0.1 μM test substance) was 70.2%; with Rat white adipocytes, 110%.

As for “N-[3-(Pyrrolidinylsulfonyl)phenyl]-(2-chloro-5-nitrophenyl)carboxamide [Example 154]”, the “Rate of Uptake (%) of [2-14C] acetic acid” value in assay [1] (0.1 μM test substance) is reported as 67.4%. Also, in the assay on Rat white adipocytes, the “Rate of Differentiation (%)” value is reported as 123.8%.
